What all share (experiment): inhibition of tumour cell growth, NCI panel, 48 h
The test system of assay [1] is HOP-92 NSCLC.
Assay [2] concerns A498 renal.
Assay [3] deals with SN12C renal.
Assay [4] concerns BT-549 breast.
For assay [5], the system named is NCI-H226 lung.
In assay [6] the test system is DU-145 prostate.
In assay [7] the test system is MDA-MB-231 breast.
The test system of assay [8] is RXF 393 renal.
Assay [9] concerns HCT-116 colon.
Assay [10] concerns SR leukemia.

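Dose response: 5 concentrations. Exposure: 48 h. Format: 96-well plates. Endpoint: linear interpolation; highest concentration if not reached. GI50: concentration for 50% inhibition of growth. TGI: total growth inhibition.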

On to `NC(N)=N/N=C(/c1ccccc1)c1ccc(F)cc1`, for which the GI50 in assay [1] was 0.984 µM; in [2], 0.299 µM; in assay [3], 0.817 µM; in [4], 0.551 µM; in [5], 1.06 µM; in [6], 0.33 µM. Also, the GI50 was 0.649 µM in [7], 0.291 µM in assay [8], 0.33 µM in assay [9] and 0.286 µM in assay [10]. Besides, the TGI in assay [1] is 31.4 µM; in assay [2] it was 3.28 µM; in assay [3], 22.2 µM; in assay [4], 2.85 µM; in [5], 14.5 µM; in [6], 4.15 µM. Also, the TGI in assay [7] is 14 µM; in assay [8] it was 3.54 µM; in assay [9], 4.15 µM; in [10], 6.11 µM.

With `COc1cc(-n2cc(-c3ccc(Cl)c(Cl)c3)nc2SCc2ccccc2)cc(OC)c1OC`, the GI50 in assay [1], in assay [2], in assay [3], in assay [4], in [5] and in assay [6] was over 100 µM each time. Moreover, the GI50 in assay [7] was over 100 µM; in [8], 92.5 µM; in assay [9], 80.7 µM; in assay [10], over 100 µM. Also, the TGI in [1], in assay [2], in assay [3], in assay [4], in assay [5] and in assay [6] was over 100 µM each time. Moreover, the TGI in assay [7], in assay [8], in assay [9] and in assay [10] was over 100 µM each time.

On to `N#CC(=C1SCS1)[N+](=O)[O-]`, for which the GI50 in assay [1] is 0.365 µM; in assay [2], 2.31 µM; in assay [3], 4.35 µM; in assay [4], 9.3 µM; in [5], 16.7 µM; in [6], 2.56 µM. In addition, the GI50 is 4.94 µM in [7], 1.63 µM in [8], 0.346 µM in assay [9] and 0.568 µM in assay [10]. For the same compound, the TGI came to 10.4 µM in assay [1]; 12.7 µM in assay [2]; 18.4 µM in assay [3]; 23 µM in assay [4]; 62.8 µM in [5]; 10.1 µM in assay [6]. The TGI was determined as 20.4 µM in assay [7], 3.83 µM in [8], 10.3 µM in assay [9] and 4.31 µM in assay [10].

For the compound `N/C(CC(=O)Nc1cc(C(F)(F)F)ccc1Cl)=N\O`, the TGI in [1], in assay [2], in [3], in [4], in assay [5] and in assay [6] was over 100 µM in each case. The TGI in assay [7], in assay [8], in assay [9] and in [10] was over 100 µM in each case.

For the compound `CC(C)(C)OC(=O)NC(Cc1ccccc1)C(=O)OCN1C(=O)C2C3C=CC(C2C1=O)C1C2C(=O)N(COC(=O)C(Cc4ccccc4)NC(=O)OC(C)(C)C)C(=O)C2C31` (stereo not given), the TGI in [1] is over 100 µM; in [2] it was over 90.9 µM; in [3] it was over 100 µM; in [4], 92.6 µM; in [5] it was over 96.4 µM; in [6] it was over 100 µM. Further, the TGI in assay [7] is over 94.2 µM; in assay [8] it was over 64.2 µM; in assay [9] it was over 88.5 µM; in assay [10] it was 4.06 µM.

With `CCN1CCN(c2nc(NCCCNc3ccnc4cc(Cl)ccc34)c3ccccc3n2)CC1`, the GI50 is 1.78 µM in [1]; 11.3 µM in assay [2]; 2.6 µM in [3]; 3.45 µM in [4]; 4.97 µM in [5]; 3.05 µM in [6]. Besides, the GI50 was 2.08 µM in [7], 1.51 µM in [8], 2.25 µM in assay [9] and 1.29 µM in [10]. Besides, the TGI in assay [1] is 4.64 µM; in assay [2], 23.5 µM; in assay [3] it was 11.5 µM; in [4], 13.6 µM; in assay [5] it was 26 µM; in [6], 13.2 µM. The TGI in assay [7] stood at 5.14 µM; in [8] it was 3.29 µM; in assay [9], 6.53 µM; in assay [10], 5.44 µM.

Regarding `CC(C)(C)OC(=O)n1cc(CNC(=S)Nc2ccccc2)c2ccccc21`, the GI50 in [1] was 8.94 µM; in assay [2], 15.1 µM; in [3], 15.1 µM; in assay [4] it was 14.5 µM; in [5], 14.3 µM; in [6], 7 µM. In addition, the GI50 is 15.5 µM in assay [7], 19.3 µM in assay [8], 15.2 µM in assay [9] and 5.07 µM in assay [10]. Moreover, the TGI in assay [1] stood at 25.7 µM; in [2], 31.2 µM; in assay [3], 28.4 µM; in [4], 32.7 µM; in assay [5], 30.7 µM; in assay [6], 35.4 µM. In addition, the TGI in assay [7] is 28.8 µM; in assay [8] it was 43.2 µM; in assay [9] it was 30.1 µM; in assay [10], over 100 µM.

In the case of `O=C(CSc1nc2ccc([N+](=O)[O-])cc2[nH]1)Nc1ccc(F)c(Cl)c1`, the GI50 is 0.346 µM in assay [1]; 1.11 µM in assay [2]; 2.36 µM in assay [3]; 2.44 µM in assay [4]; 2.15 µM in assay [5]; 3.24 µM in assay [6]. Besides, the GI50 in assay [7] was 1.91 µM; in assay [8] it was 2.34 µM; in assay [9], 2.42 µM; in assay [10], 3 µM. Further, the TGI in assay [1] is 2.72 µM; in assay [2], 3.6 µM; in assay [3] it was 10.7 µM; in [4], 9.34 µM; in assay [5], 9.57 µM; in [6], 13.4 µM. Moreover, the TGI in assay [7] is 5.59 µM; in assay [8], 7.84 µM; in [9], 10.6 µM; in [10], over 37.3 µM.

(Values after PubChem BioAssay (NCI).)
